From patent US9266864B2, “VEGFR3 inhibitors” (CANCER THERAPEUTICS CRC PTY LIMITED, priority 2012, dated 2016)

Molecular target: T1, P397Y-FAK (Homo sapiens, UniProt Q05397)
T1 construct: endogenous in cells; host or cells: MDA-231-LNA
Assay: P397Y-FAK Inhibition MSD Platform Cellular Biomarker Assay
Format: cell-based
Settings: MDA-231-LNA cells; concentration not given
Description: 96-well plates (cat#MA6000, Meso Scale Discovery) are coated with 30 μL/well of mouse monoclonal FAK antibody [63D5] (cat#ab72140, Abcam) pre-diluted in PBS to a concentration of 1 mg/mL. The plates are sealed with adhesive film and incubated for 16 hours at 4° C. The antibody is then flicked out of the plates and 150 μL of 3% [w/v] Blocker A (cat#R93AA-1, Meso Scale Discovery) is added. The plates are resealed with adhesive film and incubated at room temperature on a shaker set at medium speed for 2 hours. The plates are then washed three times with a solution containing 50 mM Tris-HCl pH 7.5, 0.15 M NaCl and 0.02% Tween-20, before cell lysate addition described below.
Cells are split 1:2 into T150 cell culture flasks 2 days prior to compound treatment. On the day prior to compound treatment, 200 μL media containing 20,000 cells is seeded into all wells of white, clear-bottom, TC treated, μclear, 96-well microtitre plates (cat#655098, Greiner Bio-One), and the plates are incubated at 37° C. and 5% CO2 for 36 hours. 1 μL/well of compound is then added from dilution series prepared in DMSO. […] 150 μL/well of Read Buffer T+Surfactant (cat#R92TC-1, Meso Scale Discovery) is then added, and pFAK-397 levels quantified using a Meso Scale Discovery SECTOR Imager 6000 instrument. […]

T1 sequence (Q05397 2-1052 limits assumed, stated change not applied): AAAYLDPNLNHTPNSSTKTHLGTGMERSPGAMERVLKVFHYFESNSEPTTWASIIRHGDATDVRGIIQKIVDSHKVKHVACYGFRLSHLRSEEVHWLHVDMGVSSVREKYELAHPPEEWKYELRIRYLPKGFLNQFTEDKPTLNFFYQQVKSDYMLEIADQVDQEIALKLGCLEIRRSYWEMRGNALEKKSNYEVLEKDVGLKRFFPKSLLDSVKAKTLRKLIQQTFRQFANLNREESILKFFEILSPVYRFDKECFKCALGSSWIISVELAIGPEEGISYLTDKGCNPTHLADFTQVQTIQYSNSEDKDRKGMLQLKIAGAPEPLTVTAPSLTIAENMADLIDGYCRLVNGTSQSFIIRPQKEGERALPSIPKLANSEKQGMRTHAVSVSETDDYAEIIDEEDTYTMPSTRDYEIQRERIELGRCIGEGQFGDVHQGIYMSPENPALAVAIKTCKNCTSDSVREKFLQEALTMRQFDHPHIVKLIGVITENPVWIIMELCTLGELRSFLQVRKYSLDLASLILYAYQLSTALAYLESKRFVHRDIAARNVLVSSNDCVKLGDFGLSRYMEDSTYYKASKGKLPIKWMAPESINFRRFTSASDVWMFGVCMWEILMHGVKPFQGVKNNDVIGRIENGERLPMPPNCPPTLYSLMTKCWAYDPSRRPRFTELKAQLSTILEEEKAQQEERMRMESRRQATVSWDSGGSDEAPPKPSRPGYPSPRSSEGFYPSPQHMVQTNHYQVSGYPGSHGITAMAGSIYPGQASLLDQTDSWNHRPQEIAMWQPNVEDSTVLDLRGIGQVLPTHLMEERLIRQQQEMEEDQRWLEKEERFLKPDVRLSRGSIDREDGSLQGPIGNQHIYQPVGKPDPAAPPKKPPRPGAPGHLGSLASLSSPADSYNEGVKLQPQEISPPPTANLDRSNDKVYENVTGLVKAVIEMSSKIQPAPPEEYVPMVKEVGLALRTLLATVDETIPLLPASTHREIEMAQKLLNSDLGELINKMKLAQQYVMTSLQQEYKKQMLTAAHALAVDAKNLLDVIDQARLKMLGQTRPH

P397Y-FAK inhibition (percent printed in the IC50 column): <50%
Compound: NC(=O)Cc1ccccc1CCc1nc(Nc2ccc(C3CNC3)cc2)ncc1C(F)(F)F [Compound 20, 2-(2-(2-(2-((4-(azetidin-3-yl)phenyl)amino)-5-(trifluoromethyl)pyrimidin-4-yl)ethyl)phenyl)acetamide]
